From article PMC11732138, “Gold complex compounds that inhibit drug-resistant Staphylococcus aureus by targeting thioredoxin reductase” (Frontiers in Antibiotics, 2023)
≈ marks a conversion by molar mass, not a printed value. Entries after “also recorded” stand apart in the source; their conditions may differ. Where two headings read alike, the source gives them in different places.

What was measured:
S. aureus MW2 [1] = experiment: Time to kill assay; assay type: cell-based, Staphylococcus aureus; details: 4 × MIC, 4 h; bactericidal = 3-log10-CFU/mL reduction
Method: S. aureus MW2, a methicillin-resistant S. aureus (MRSA) isolate, was used to determine the bacteriostatic/bactericidal properties of test compounds, as previously described ([Rajamuthiah et al., 2015]). Assays were carried out as 2 biological replicates with n=3 for each in 24 well plates (BD Biosciences, Franklin Lakes, NJ, USA). Briefly, S. aureus MW2 cells were streaked on TSB agar from a frozen glycerol stock, and after overnight incubation, a single colony was inoculated on 2 mL of TSB and incubated at 37°C with agitation. The overnight culture of S. aureus MW2 was centrifuged at 4000 g for 5 min and then washed twice with PBS and collected through centrifuged at 4000 g for 5 min. The PBS was discarded and cells were suspended in TSB and aliquoted into a 24-well plate at a density of 10^8 cells/mL as a 1 mL volume. Test compounds were added such that the final concentration was 4 × MIC, and the cultures were incubated at 37°C with agitation. At designated time intervals, 5 μL aliquots from each test condition were serially diluted in TSB and plated onto TSA (BD Biosciences, Franklin Lakes, NJ, USA). CFUs were enumerated after overnight incubation at 35°C, and data were plotted using GraphPad Prism 9.0 (San Diego, CA, USA) to report the means and standard deviation of growth as measured by CFU/mL.

HKC cells = experiment: Immortalized cell line toxicity (WST-1), HKC; assay type: cell-based, human; details: HKC kidney cell line, 24 h
Method: (§1) A hepatic cell line (HepG2), lung carcinoma cell line (A549), and kidney cell line (HKC) were used to test the cytotoxicity of investigational compounds. Cells were grown in DMEM (ThermoFisher Scientific, Waltham, MA, USA) supplemented with 10% fetal bovine serum (FBS) (ThermoFisher Scientific, Waltham, MA, USA) and 1% penicillin/streptomycin (ThermoFisher Scientific, Waltham, MA, USA) and maintained at 37°C in 5% CO2. 2.5x10^4 cells in 100 μL of DMEM with 10% FBS were added to wells of 96-well plates 24 h prior to the experiments. Compounds were serially diluted in […], and 100 μL antibiotic-free DMEM was added to the monolayer and incubated at 37°C in 5% CO2 for 24 h. At 2 h before the end of the incubation period, 10 μL of 2-(4-iodophenyl)-3-(4-nitrophenyl)-5-(2, 4-disulfophenyl)-2H-tetrazolium (WST-1) solution (Roche, Mannheim, Germany) was added to each well. WST-1 reduction was monitored at 450 nm using a Vmax microplate reader. Assays were performed in triplicate, and the percentage survival was calculated by comparing the compound-treated wells to the DMSO vehicle control wells.

HepG2 cells = experiment: Immortalized cell line toxicity (WST-1), HepG2; assay type: cell-based, human; details: HepG2 liver cell line, 24 h
Method: as §1

A549 cells = experiment: Immortalized cell line toxicity (WST-1), A549; assay type: cell-based, human; details: A549 lung carcinoma cell line, 24 h
Method: as §1

[2] = Immortalized cell line toxicity (WST-1), the three cell lines together; assay type: cell-based; details: human, hkc, hepg2, a549 cells, HKC, HepG2, A549; read-out: toxicity to cell lines as multiple of the MIC
Method: as §1

[3] = test system: human primary hepatocytes; experiment: Human primary hepatocytes toxicity; assay type: cell-based; details: 24 h, WST1
Method: Human primary hepatocytes toxicity. Cryopreserved human primary hepatocytes were purchased from the Cell Resource Core at Massachusetts General Hospital (Boston, MA, USA). Collagen sandwiched configuration was used to culture the thawed cells in 24-well plates. The 24-well plates were coated with rat tail collagen type I (Cell Recourse Core, MGH) and incubated for an hour before 4 x 10^5 live cells were plated and incubated at 37°C with 5% CO2 for 1 h to allow cells to attach to the collagen gel. After incubation, the medium was removed along with dead cells, and the remaining cells received 0.5 mL of hepatocyte culture medium containing Dulbecco’s modified Eagle’s medium (DMEM) media supplemented with 10% FBS, 0.5 U/mL insulin, 14 ng/mL glucagon, 20 ng/mL EGF, 7.5 µg/mL hydrocortisone and 200 U/mL penicillin-streptomycin. The cell cultures were incubated in a humidified, 5% CO2 incubator at 37°C. After 24 h, a top layer of collagen gel was poured over the hepatocytes attached to collagen on the bottom of the plate, making a sandwich model. After 1 h, investigational compounds at the designated concentrations were added and incubated for 24 h. Post incubation, hepatocyte WST1 (Roche, Basel, Switzerland) was added and incubated for 4 h. Cell staining was measured by recording the absorbance at 420 nm, measured using a Vmax microplate reader (Molecular Devices, San Jose, CA, USA.), and data were plotted using GraphPad Prism. Cells were tested in triplicate.

[4] = test system: renal proximal tubule epithelial cells; experiment: Renal proximal tubule epithelial cell toxicity; assay type: cell-based, human
[5] = Compound solubility in PBS; assay type: physicochemical; details: aqueous buffer
Method: Compound solubility in PBS. Compound solubility was measured in PBS. Briefly, serial dilutions of test compounds were prepared in DMSO at 100x the final concentration. Test compound solutions were diluted 100-fold into PBS in a 96-well plate and mixed. After 2 h, the presence of precipitate was detected by measuring absorbance at 540 nm.

[6] = Compound solubility in DMSO; assay type: physicochemical; details: organic solvent or mixture, turbidity at 540 nm, read-out: concentration at which reduced solubility began in DMSO
Method: To test compound solubility, stock solutions were made in triplicate at 50 mg/mL in DMSO. Two-fold serial dilutions of the test compounds were prepared at 50 μL volume in a 96-well assay plate and were kept in the incubator for 1 h. After incubation, the absorbance was measured at 540 nm using a Vmax microplate reader (Molecular Devices, Sunnyvale, CA, USA.) to detect turbidity.

hERG channel = hERG channel (Homo sapiens, UniProt Q12809); experiment: hERG measurement (QPatch HTX patch clamp)
Sequence of hERG channel (Q12809 whole entry): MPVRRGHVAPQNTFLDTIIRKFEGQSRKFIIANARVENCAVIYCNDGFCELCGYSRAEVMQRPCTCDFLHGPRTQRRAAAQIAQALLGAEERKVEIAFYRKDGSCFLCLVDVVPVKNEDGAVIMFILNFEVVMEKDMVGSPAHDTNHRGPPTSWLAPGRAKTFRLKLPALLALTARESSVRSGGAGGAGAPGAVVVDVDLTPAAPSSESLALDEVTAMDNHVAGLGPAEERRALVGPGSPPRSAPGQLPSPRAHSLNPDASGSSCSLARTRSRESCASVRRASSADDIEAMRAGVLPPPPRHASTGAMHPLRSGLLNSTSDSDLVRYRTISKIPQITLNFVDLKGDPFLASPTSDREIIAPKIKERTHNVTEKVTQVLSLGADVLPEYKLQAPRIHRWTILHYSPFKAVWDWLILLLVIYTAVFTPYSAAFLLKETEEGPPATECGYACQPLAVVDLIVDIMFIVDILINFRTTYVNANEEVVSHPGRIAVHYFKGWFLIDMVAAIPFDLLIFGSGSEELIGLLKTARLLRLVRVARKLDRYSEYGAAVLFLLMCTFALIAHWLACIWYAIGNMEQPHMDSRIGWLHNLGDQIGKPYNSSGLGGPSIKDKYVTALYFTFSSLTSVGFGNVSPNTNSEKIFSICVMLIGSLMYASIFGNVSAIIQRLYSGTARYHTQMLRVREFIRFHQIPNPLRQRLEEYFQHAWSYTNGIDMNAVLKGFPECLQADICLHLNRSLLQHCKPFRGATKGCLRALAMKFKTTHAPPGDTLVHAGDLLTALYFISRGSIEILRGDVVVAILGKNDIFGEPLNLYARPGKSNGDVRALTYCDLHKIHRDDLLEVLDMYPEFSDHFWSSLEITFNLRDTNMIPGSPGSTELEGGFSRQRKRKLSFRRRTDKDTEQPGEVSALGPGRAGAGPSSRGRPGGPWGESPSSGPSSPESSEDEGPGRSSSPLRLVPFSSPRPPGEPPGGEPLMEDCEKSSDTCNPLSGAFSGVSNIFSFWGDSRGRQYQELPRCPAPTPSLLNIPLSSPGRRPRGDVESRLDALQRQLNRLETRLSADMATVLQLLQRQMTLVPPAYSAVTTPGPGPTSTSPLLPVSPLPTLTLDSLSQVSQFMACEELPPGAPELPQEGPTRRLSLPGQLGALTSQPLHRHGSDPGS
Excerpt: QPatch HTX system (Sophion Biosciences A/S, Ballerup, Denmark) was used to examine hERG signaling (Cyprotex, Watertown, MA, USA). The system was primed with appropriate extracellular (NaCl, KCl, CaCl2, MgCl2, D-glucose, HEPES, pH 7.4) and intracellular (KCl, MgCl2, EGTA, MgATP, HEPES, pH 7.2) solutions before conducting the study in a 48 well plate (QPlate, Sophion Biosciences A/S, Ballerup, Denmark). All cell suspensions, buffers, and test compound solutions were kept at room temperature during the experiment. HEK293 cells stably transfected with hERG cDNA were washed and positioned into each well (recording chamber) of the QPlate. The QPatch system follows the general principles of conventional whole-cell patch-clamping: a high resistance seal is formed between the patch electrode, and an individual cell, the membrane across the electrode tip is then ruptured, and the whole-cell patch-clamp configuration is established. The standard voltage profile was as follows: step from -80 mV to –50 mV for 200 ms, +20 mV for 4.8 s, step to -50 mV for 5 s, then stepped to the holding potential of -80 mV. The step from -80 mV to the test command (+20 mV) results in an outward current (i.e., current flows out of the cell), and the step from the test command (+20 mV) to -50 mV results in the tail current (the tail current represents deactivation of the current overtime). Compound dilutions were prepared by diluting a DMSO solution (default 10 mM), followed by dilution into an extracellular buffer such that the final concentrations tested were 0.1, 1, and 10 μM (final DMSO concentration 0.1%). Perfusion solutions contained 0.05% Pluronic F-68 and were stored at room temperature for the duration of the experiment each day. The voltage protocol was run and recorded continuously during the experiment. Cells were treated with a vehicle for 3 min (i.e., 0.1% DMSO) followed by three increasing test substance concentrations (0.1, 1, and 10 μM). The test compounds were applied in triplicate at each concentration and tested in at least 2 cells (biological replicates). […]

S. aureus TrxR = S. aureus TrxR (Staphylococcus aureus, UniProt P66011); experiment: TrxR (TrxB) enzymatic assay, DTNB to TNB conversion
Sequence of S. aureus TrxR (P66011 whole entry): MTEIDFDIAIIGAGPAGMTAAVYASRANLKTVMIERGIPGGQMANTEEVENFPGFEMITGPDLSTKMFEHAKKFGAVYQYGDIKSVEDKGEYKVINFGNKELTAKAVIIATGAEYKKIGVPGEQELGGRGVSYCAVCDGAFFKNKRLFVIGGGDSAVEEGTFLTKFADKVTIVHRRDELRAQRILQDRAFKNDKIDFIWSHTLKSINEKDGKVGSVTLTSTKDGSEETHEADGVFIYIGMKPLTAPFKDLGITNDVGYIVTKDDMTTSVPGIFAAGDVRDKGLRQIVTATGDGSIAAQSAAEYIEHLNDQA
Method: TrxR specific inhibitory activity was evaluated using 40 μL of S. aureus TrxR enzyme (0.5 μg/μL) per 200 mL of the reaction mixture for 15 minutes, comparing auranofin to other sulfur-containing compounds (all tested at 10 μg/mL), including known anti-S. aureus compounds.
For the screening assay, diluted TrxR assay buffer (Cayman Chemical, Ann Arbor, MI) (100 μL) was mixed with the investigational compounds (20 μL) in a 96 well-plate format and combined with Sa-TrxB (40 μL; 0.5 μg/mL), DTNB (20 μL) and NADPH (20 μL). The reaction entailed combining NADPH and Sa-TrxB with DTNB, which was converted to TNB, producing a yellow color.

S. aureus MW2 [7] = experiment: Broth microdilution MIC, S. aureus MW2; assay type: cell-based, Staphylococcus aureus; details: Staphylococcus aureus, MRSA, 18 h
Method: (§2) In vitro antibiotic susceptibilities were determined using the broth microdilution assay established by the Clinical and Laboratory Standards Institute ([Clinical and Laboratory Standards Institute, 2012]). Broth microdilution assays were carried out with 2 biological replicates, each in triplicate, Mueller–Hinton broth (MHB; BD Biosciences, Franklin Lakes, NJ, USA) with a total assay volume of 100 μL in 96-well plates (BD Biosciences, Franklin Lakes, NJ, USA). Two-fold serial dilutions of compounds were prepared at a range of 0.01– 64 μg/mL in 50 μL of MHB. The initial bacterial inoculum was adjusted to OD600 0.06, 50 μL was, added to the test compounds, and then incubated at 35°C for 18 h. Post incubation, OD600 was measured using a Vmax microplate reader (Molecular Devices, San Jose, CA), and the lowest concentration of test compound that suppressed bacterial growth was reported as the MIC. Broth culture from the MIC assay (10 μL) was plated on Mueller–Hinton agar (BD Biosciences, Franklin Lakes, NJ, USA), and colony-forming units (CFUs) were enumerated after overnight incubation at 37°C.

E. faecium ATCC E007 = experiment: Broth microdilution MIC, E. faecium; assay type: cell-based, Enterococcus faecium; details: Enterococcus faecium, ATCCE007
Method: as §2

H. pylori 49503 = experiment: Broth microdilution MIC, H. pylori; assay type: cell-based, Helicobacter pylori; details: Helicobacter pylori, 49503
Method: as §2

A. baumannii 17978 = experiment: Broth microdilution MIC, A. baumannii; assay type: cell-based, Acinetobacter baumannii; details: Acinetobacter baumannii, 17978
Method: as §2

P. aeruginosa PA14 = experiment: Broth microdilution MIC, P. aeruginosa; assay type: cell-based, Pseudomonas aeruginosa; details: Pseudomonas aeruginosa, PA14
Method: as §2

K. pneumoniae ATCC 77326 = experiment: Broth microdilution MIC, K. pneumoniae; assay type: cell-based, Klebsiella pneumonia; details: Klebsiella pneumoniae, ATCC77326
Method: as §2

Enterobacter (EAE 2625) = experiment: Broth microdilution MIC, Enterobacter; assay type: cell-based, Enterobacter spp.; details: Enterobacter
Method: as §2

[8] = test system: clinical isolates of S. aureus; experiment: MIC against clinical isolates of S. aureus; assay type: cell-based; details: Staphylococcus aureus
Method: Broth microdilution assays were carried out with 2 biological replicates, each in triplicate, Mueller–Hinton broth (MHB; BD Biosciences, Franklin Lakes, NJ, USA) with a total assay volume of 100 μL in 96-well plates (BD Biosciences, Franklin Lakes, NJ, USA). […] The initial bacterial inoculum was adjusted to OD600 0.06, 50 μL was, added to the test compounds, and then incubated at 35°C for 18 h. Post incubation, OD600 was measured using a Vmax microplate reader (Molecular Devices, San Jose, CA), and the lowest concentration of test compound that suppressed bacterial growth was reported as the MIC.
Isolates were tested as 2 biological replicates.

[9] = test system: S. aureus MW2 biofilm formation; experiment: Biofilm formation inhibition; assay type: cell-based, Staphylococcus aureus; details: 24 h, Alamar Blue
Method: (§3) Diluted bacterial cells were added to 100 μL of test compounds (serially diluted 16 to 0 μg/mL) and incubated for 24 h to assess the biofilm formation inhibition. For the disruption of matured biofilm, diluted cells in 100 μL were added to the 96-well plate and incubated for 24 h with no agitation. […] Biofilm assays were completed in triplicate.

mature S. aureus biofilm = experiment: Disruption of mature biofilm; assay type: cell-based, Staphylococcus aureus; details: preformed 24 h biofilm, Alamar Blue
Method: as §3

**Q.** With `CC(C)(C)c1ccc(S(=O)[O-])cc1.[Au+].c1ccc(P(c2ccccc2)c2ccccc2)cc1` [AU5] as the compound, how does the “bactericidal versus bacteriostatic nature (time-to-kill kinetics)” value (S. aureus MW2 [1]) read?
**A.** bactericidal; also recorded: bacteriocidal

**Q.** What about the LD50 (HKC cells) of the same compound?
**A.** approximately 4 μg/mL

**Q.** What about the LD50 (HepG2 cells) of the same compound?
**A.** approximately 4 μg/mL

**Q.** What about the LD50 (A549 cells) of the same compound?
**A.** approximately 4 μg/mL

**Q.** And the selectivity ratio at 24 h [2]?
**A.** 16

**Q.** And the LD50 [3]?
**A.** ~6 µg/mL

**Q.** What about the LD50 ([4]; renal proximal tubule epithelial cells) of the same compound?
**A.** 2 µg/mL

**Q.** What about the solubility at 2 h ([5]; PBS, 2 Hour, highest concentration with no detectable precipitate, read-out: Solubility Limit) of the same compound?
**A.** 3.13 µM

**Q.** What about the solubility at 2 h ([5]; pbs, read-out: Solubility in PBS converted to mass concentration) of the same compound?
**A.** 2.03 µg/mL

**Q.** And the solubility at 1 h [6]?
**A.** 6.5 µg/mL

**Q.** What about the IC50 (hERG channel) of the same compound?
**A.** 3160 nM

**Q.** And the IC50 (S. aureus TrxR)?
**A.** 1830 nM

**Q.** Which results are given for `CN[C@H](CC(C)C)C(=O)N[C@H]1C(=O)N[C@@H](CC(N)=O)C(=O)N[C@H]2C(=O)N[C@H]3C(=O)N[C@H](C(=O)N[C@H](C(=O)O)c4cc(O)cc(O)c4-c4cc3ccc4O)[C@H](O)c3ccc(c(Cl)c3)Oc3cc2cc(c3O[C@@H]2O[C@H](CO)[C@@H](O)[C@H](O)[C@H]2O[C@H]2C[C@](C)(N)[C@H](O)[C@H](C)O2)Oc2ccc(cc2Cl)[C@H]1O` [Vancomycin]?
**A.** MIC (S. aureus MW2 [7]): 1 µg/mL (≈ 0.69 µM); MIC (E. faecium ATCC E007): 1 µg/mL (≈ 0.69 µM); MIC (H. pylori 49503): > 64 µg/mL; MIC (A. baumannii 17978): > 64 µg/mL; MIC (P. aeruginosa PA14): > 64 µg/mL; MIC (K. pneumoniae ATCC 77326): > 64 µg/mL; MIC (Enterobacter (EAE 2625)): > 64 µg/mL; MIC ([8]; isolate BFSA12): 1 µg/mL (≈ 0.69 µM); MIC ([8]; isolate BFSA13): 1 µg/mL (≈ 0.69 µM); MIC ([8]; isolate BFSA15): 1 µg/mL (≈ 0.69 µM); MIC ([8]; isolate BFSA16): 1 µg/mL (≈ 0.69 µM); MIC ([8]; isolate BFSA17): 1 µg/mL (≈ 0.69 µM); MIC ([8]; isolate BFSA18): 2 µg/mL (≈ 1.38 µM); MIC ([8]; isolate BFSA19): 1 µg/mL (≈ 0.69 µM); MIC ([8]; isolate BFSA20): 1 µg/mL (≈ 0.69 µM); MIC ([8]; isolate BFSA21): 2 µg/mL (≈ 1.38 µM); MIC ([8]; isolate BFSA22): 2 µg/mL (≈ 1.38 µM); MIC ([8]; isolate BFSA24): 1 µg/mL (≈ 0.69 µM); MIC ([8]; isolate BFSA26): 2 µg/mL (≈ 1.38 µM); MIC ([8]; isolate BFSA29): 1 µg/mL (≈ 0.69 µM); MIC ([8]; isolate BFSA30): 1 µg/mL (≈ 0.69 µM); MIC ([8]; isolate BFSA31): 2 µg/mL (≈ 1.38 µM); MIC ([8]; isolate BFSA32): 2 µg/mL (≈ 1.38 µM); MIC ([8]; isolate BFSA33): 2 µg/mL (≈ 1.38 µM); MIC ([8]; isolate BFSA34): 1 µg/mL (≈ 0.69 µM); MIC ([8]; isolate BFSA35): 1 µg/mL (≈ 0.69 µM); MIC ([8]; isolate BFSA36): 2 µg/mL (≈ 1.38 µM); MIC ([8]; isolate BFSA37): 1 µg/mL (≈ 0.69 µM); MIC ([8]; isolate BFSA38): 1 µg/mL (≈ 0.69 µM); MIC ([8]; isolate BFSA39): 1 µg/mL (≈ 0.69 µM); MIC ([8]; isolate BFSA148): 1 µg/mL (≈ 0.69 µM); MIC ([8]; isolate BFSA149): 2 µg/mL (≈ 1.38 µM); MIC ([8]; isolate BFSA150): 1 µg/mL (≈ 0.69 µM); MIC ([8]; isolate BFSA151): 1 µg/mL (≈ 0.69 µM); MIC ([8]; isolate BFSA152): 2 µg/mL (≈ 1.38 µM); MIC ([8]; isolate BFSA153): 2 µg/mL (≈ 1.38 µM); MIC ([8]; isolate BFSA155): 1 µg/mL (≈ 0.69 µM); concentration that inhibited biofilm formation (P<0.01) [9]: 1 µg/mL; concentration that significantly reduced mature biofilm (mature S. aureus biofilm): 2 µg/mL; impact on renal proximal tubule epithelial cells (in words) ([4]; at the tested concentrations): did not impact
